# Test results reported in US20250281462A1, “THERAPEUTICALLY EFFECTIVE ORAL ADMINISTRATION OF A 2 ARYLBENZIMIDAZOLE” (Tranquis Therapeutics, Inc., priority 2021, published 2025).
# Several values for one entry are separate records, joined by “and”; a condition that tells them apart may be missing. Equal values may be shown once. Entries after “also recorded” stand apart in the source; their conditions may differ. Read-outs that look alike come from different tables or passages of the source.
# Assays:
# [1] = human, in vivo, 120 mg
# clinical = conditions: male, human, in vivo, 120 mg
# [2] = Tissue concentrations (plasma, brain, liver) after single oral dose 25 mg/kg in mice; format: in vivo
# Protocol: In a first experiment, a total of 3-4 male C57BL6/J mice were administered a single dose of TQS-168 by oral gavage at 25 mg/kg. TQS-168 was prepared for oral gavage as a suspension with 0.5% methylcellulose in PBS.
# Tissues were collected at various time points after dosing and processed for LC-MS analyses of TQS-168 concentrations. The tissues analyzed include plasma, brain, and liver. Animals were perfused thoroughly with 20 mL ice cold PBS before brain and liver collection to remove contaminating blood. Data are shown in Table 1 (TQS-168 concentrations in ng/mL).
# IL-6 = test: LPS-induced IL-6 secretion from BV2 cells (CBA assay); format: cell-based, murine; conditions: 1-20 μM
# Protocol: Lipopolysaccharide (LPS) is a natural ligand of the TLR4/CD14 complex, which is highly expressed on myeloid cells
# LPS was used to induce cytokine secretion from BV-2 cells. Cells were incubated with TQS-168 at various concentrations to assess whether TQS-168 could suppress the LPS-promoted release of various cytokines from in vitro cell cultures. Cytokine secretion was measured by cytometric bead array (CBA) fluorescence-activated cell sorting (FACS).
# Briefly, a vial of BV2 frozen stock (1 million cells per ml in complete medium) was thawed into 10 mL of complete medium per vial for a total of 4 vials. The vials were then centrifuged at 1800 rpm for 3 minutes to wash away freezing media. The four vials were then pooled into 25 mL of complete medium. TQS-168 was prepared in DMSO.
# Cells were incubated for 24 hours in the presence of medium (negative control), LPS (positive control), DMSO+LPS (positive control, controlling additionally for presence of DMSO in the TQS-168 stock solution), or LPS+TQS-168 at final concentrations of 1 μM, 5 μM, 10 μM, and 20 μM.
# After the well plates were incubated overnight for 24 hours, they were centrifuged at 1800 rpm for 5 minutes. Next, 150 μl from each well was transferred to a new set of plates, of which 50 μl was used for CBA. […]
# [3] = background statement; cited from earlier work
# Ppargc1α (PGC-1α) = conditions: Zhang et al., Diabetes 62:1297-1307 (2013); cited from earlier work
# [4] = 25 mg/kg p.o., 0.0 minutes, individual animal, 25 mg/kg
# [5] = 25 mg/kg p.o., 15.0 minutes, individual animal, 25 mg/kg
# [6] = 25 mg/kg p.o., 60.0 minutes, individual animal, 25 mg/kg
# [7] = 25 mg/kg p.o., 120.0 minutes, individual animal, 25 mg/kg
# [8] = 25 mg/kg p.o., 240.0 minutes, individual animal, 25 mg/kg
# [9] = 25 mg/kg p.o., 480.0 minutes, individual animal, 25 mg/kg
# [10] = 25 mg/kg p.o., 1440.0 minutes, individual animal, 25 mg/kg
# [11] = 25 mg/kg p.o., 2880.0 minutes, individual animal, 25 mg/kg
smiles,measurement,setting,value
CC(C)(C)c1ccc(-c2nc3cc(O)ccc3[nH]2)cc1 [TQS-621],AR AUC,[1],1.46
same,AR Cmax,[1],1.03
same,T1/2,[1]; male,10.2 h
same,Tmax,[1]; male,1.75 h
same,accumulation ratio based on AUC(0-tau),"[1]; male, 7 days",1.46
same,accumulation ratio based on Cmax,"[1]; male, 7 days",1.30
same,half-life,clinical,10.2 h
same,AUC,clinical; AUC(0-tau),2270 ng·h/mL
same,Cmax,clinical; Cmax,331 ng/mL and 1.24 µM
same,Tmax,clinical; Tmax,1.5 h
same,Tmax,clinical; Tmax (median),1.75 h
same,Tmax,"clinical; po, Tmax (median)",1.5 h
"CC(C)(C)c1ccc(-c2nc3ccccc3[nH]2)cc1 [TQS-168, 2-(4-tert-butylphenyl)-1H-benzimidazole]",concentration in brain,[2]; [4],4.2 ng/mL and 10.7 ng/mL and 22.8 ng/mL
same,concentration in liver,[2]; [4],2.4 ng/mL and 0.4 ng/mL and 0.7 ng/mL
same,concentration in plasma,[2]; [4],0.5 ng/mL and 0.1 ng/mL and 0.0 ng/mL
same,concentration in brain,[2]; [5],21.6 ng/mL and 42.0 ng/mL and 35.2 ng/mL
same,concentration in liver,[2]; [5],268.0 ng/mL and 496.0 ng/mL and 575.0 ng/mL and 431.5 ng/mL
same,concentration in plasma,[2]; [5],12.6 ng/mL and 18.6 ng/mL and 14.6 ng/mL
same,concentration in brain,[2]; [6],253.0 ng/mL and 755.0 ng/mL and 530.0 ng/mL and 630.0 ng/mL
same,concentration in liver,[2]; [6],1060.0 ng/mL and 2725.0 ng/mL and 1940.0 ng/mL and 2175.0 ng/mL
same,concentration in plasma,[2]; [6],107.0 ng/mL and 47.0 ng/mL and 57.4 ng/mL and 86.0 ng/mL
same,concentration in brain,[2]; [7],282.0 ng/mL and 150.5 ng/mL and 242.5 ng/mL
same,concentration in liver,[2]; [7],305.5 ng/mL and 2080.0 ng/mL and 1070.0 ng/mL and 1725.0 ng/mL
same,concentration in plasma,[2]; [7],110.0 ng/mL and 43.8 ng/mL and 88.6 ng/mL and 131.0 ng/mL
same,concentration in brain,[2]; [8],399.0 ng/mL and 143.0 ng/mL and 188.0 ng/mL and 10.6 ng/mL
same,concentration in liver,[2]; [8],60.5 ng/mL and 1520.0 ng/mL and 216.5 ng/mL and 680.0 ng/mL
same,concentration in plasma,[2]; [8],46.8 ng/mL and 175.0 ng/mL and 3.4 ng/mL and 14.0 ng/mL
same,concentration in brain,[2]; [9],34.8 ng/mL and 20.9 ng/mL and 5.3 ng/mL and 18.2 ng/mL
same,concentration in liver,[2]; [9],431.5 ng/mL and 50.5 ng/mL and 37.6 ng/mL and 147.5 ng/mL
same,concentration in plasma,[2]; [9],6.0 ng/mL and 2.7 ng/mL and 1.8 ng/mL and 10.9 ng/mL
same,concentration in plasma,"[2]; 25 mg/kg p.o., 1440.0 minutes, individual animal",0.0 ng/mL
same,concentration in brain,[2]; [10],36.3 ng/mL and 8.5 ng/mL and 10.5 ng/mL and 55.5 ng/mL
same,concentration in liver,[2]; [10],4.0 ng/mL and 2.6 ng/mL and 0.8 ng/mL and 8.7 ng/mL
same,concentration in plasma,"[2]; 25 mg/kg p.o., 2880.0 minutes, individual animal",0.0 ng/mL
same,concentration in brain,[2]; [11],0.0 ng/mL and 3.0 ng/mL and 2.5 ng/mL and 0.7 ng/mL
same,concentration in liver,[2]; [11],0.0 ng/mL (3×) and 1.0 ng/mL
same,concentration at 0 min,"[2]; male, C57BL6/J, mouse, brain, po, 25 mg/kg, 25 mg/kg p.o., 0.0 minutes, average, read-out: concentration in brain",12.6 ng/mL
same,concentration at 15 min,"[2]; male, C57BL6/J, mouse, brain, po, 25 mg/kg, 25 mg/kg p.o., 15.0 minutes, average, read-out: concentration in brain",34.7 ng/mL
same,concentration at 15 minutes,"[2]; male, C57BL6/J, mouse, brain, po, 25 mg/kg, 25 mg/kg p.o., 15.0 minutes, individual animal",40.2 ng/mL
same,concentration at 60 min,"[2]; male, C57BL6/J, mouse, brain, po, 25 mg/kg, 25 mg/kg p.o., 60.0 minutes, average, read-out: concentration in brain",542 ng/mL
same,concentration at 120 min,"[2]; male, C57BL6/J, mouse, brain, po, 25 mg/kg, 25 mg/kg p.o., 120.0 minutes, average, read-out: concentration in brain",236 ng/mL
same,concentration at 120 minutes,"[2]; male, C57BL6/J, mouse, brain, po, 25 mg/kg, 25 mg/kg p.o., 120.0 minutes, individual animal",270 ng/mL
same,concentration at 240 min,"[2]; male, C57BL6/J, mouse, brain, po, 25 mg/kg, 25 mg/kg p.o., 240.0 minutes, average, read-out: concentration in brain",185 ng/mL
same,concentration at 480 min,"[2]; male, C57BL6/J, mouse, brain, po, 25 mg/kg, 25 mg/kg p.o., 480.0 minutes, average, read-out: concentration in brain",19.8 ng/mL
same,concentration at 1440 min,"[2]; male, C57BL6/J, mouse, brain, po, 25 mg/kg, 25 mg/kg p.o., 1440.0 minutes, average, read-out: concentration in brain",27.7 ng/mL
same,concentration at 2880 min,"[2]; male, C57BL6/J, mouse, brain, po, 25 mg/kg, 25 mg/kg p.o., 2880.0 minutes, average, read-out: concentration in brain",1.5 ng/mL
same,concentration at 0 min,"[2]; male, C57BL6/J, mouse, liver, po, 25 mg/kg, 25 mg/kg p.o., 0.0 minutes, average, read-out: concentration in liver",1.2 ng/mL
same,concentration at 15 min,"[2]; male, C57BL6/J, mouse, liver, po, 25 mg/kg, 25 mg/kg p.o., 15.0 minutes, average, read-out: concentration in liver",443 ng/mL
same,concentration at 60 min,"[2]; male, C57BL6/J, mouse, liver, po, 25 mg/kg, 25 mg/kg p.o., 60.0 minutes, average, read-out: concentration in liver",1980 ng/mL
same,concentration at 120 min,"[2]; male, C57BL6/J, mouse, liver, po, 25 mg/kg, 25 mg/kg p.o., 120.0 minutes, average, read-out: concentration in liver",1300 ng/mL
same,concentration at 240 min,"[2]; male, C57BL6/J, mouse, liver, po, 25 mg/kg, 25 mg/kg p.o., 240.0 minutes, average, read-out: concentration in liver",619 ng/mL
same,concentration at 480 min,"[2]; male, C57BL6/J, mouse, liver, po, 25 mg/kg, 25 mg/kg p.o., 480.0 minutes, average, read-out: concentration in liver",167 ng/mL
same,concentration at 1440 min,"[2]; male, C57BL6/J, mouse, liver, po, 25 mg/kg, 25 mg/kg p.o., 1440.0 minutes, average, read-out: concentration in liver",4 ng/mL
same,concentration at 2880 min,"[2]; male, C57BL6/J, mouse, liver, po, 25 mg/kg, 25 mg/kg p.o., 2880.0 minutes, average, read-out: concentration in liver",0.3 ng/mL
same,Cmax,"[2]; male, C57BL6/J, mouse, plasma, 25 mg/kg single oral dose",93.4 ng/mL and 370 nM
same,concentration at 0 min,"[2]; male, C57BL6/J, mouse, plasma, po, 25 mg/kg, 25 mg/kg p.o., 0.0 minutes, average, read-out: concentration in plasma",0.2 ng/mL
same,concentration at 15 min,"[2]; male, C57BL6/J, mouse, plasma, po, 25 mg/kg, 25 mg/kg p.o., 15.0 minutes, average, read-out: concentration in plasma",16.2 ng/mL
same,concentration at 15 min,"[2]; male, C57BL6/J, mouse, plasma, po, 25 mg/kg, 25 mg/kg p.o., 15.0 minutes, individual animal, read-out: concentration in plasma",18.8 ng/mL
same,concentration at 60 min,"[2]; male, C57BL6/J, mouse, plasma, po, 25 mg/kg, 25 mg/kg p.o., 60.0 minutes, average, read-out: concentration in plasma",74.4 ng/mL
same,concentration at 120 min,"[2]; male, C57BL6/J, mouse, plasma, po, 25 mg/kg, 25 mg/kg p.o., 120.0 minutes, average, read-out: concentration in plasma",93.4 ng/mL
same,concentration at 240 min,"[2]; male, C57BL6/J, mouse, plasma, po, 25 mg/kg, 25 mg/kg p.o., 240.0 minutes, average, read-out: concentration in plasma",59.8 ng/mL
same,concentration at 480 min,"[2]; male, C57BL6/J, mouse, plasma, po, 25 mg/kg, 25 mg/kg p.o., 480.0 minutes, average, read-out: concentration in plasma",5.3 ng/mL
same,concentration at 1440 min,"[2]; male, C57BL6/J, mouse, plasma, po, 25 mg/kg, 25 mg/kg p.o., 1440.0 minutes, average, read-out: concentration in plasma",0 ng/mL
same,concentration at 1440 min,"[2]; male, C57BL6/J, mouse, plasma, po, 25 mg/kg, 25 mg/kg p.o., 1440.0 minutes, individual animal, read-out: concentration in plasma",0 ng/mL
same,concentration at 2880 min,"[2]; male, C57BL6/J, mouse, plasma, po, 25 mg/kg, 25 mg/kg p.o., 2880.0 minutes, average, read-out: concentration in plasma",0 ng/mL
same,concentration at 2880 min,"[2]; male, C57BL6/J, mouse, plasma, po, 25 mg/kg, 25 mg/kg p.o., 2880.0 minutes, individual animal, read-out: concentration in plasma",0 ng/mL
same,"reduction of LPS-induced IL-6 secretion, dose response",IL-6,concentration-dependent; also recorded: dose-responsive inhibition
same,solubility,[3],highly insoluble
same,effect on Ppargc1α (PGC-1α) gene expression,Ppargc1α (PGC-1α),activator
